{"source": "patent US10080751B2", "about": "“Systems and methods for treating bacterial infection” (priority 2016, dated 2018)", "key": {"[1]": {"details": "both, rat, in vivo, iv, 4 weeks", "experimental": "A repeated-dose, 4-week toxicity study was conducted in male and female rats, where single, daily IV bolus doses up to 60 mg/kg were given. […] A 28-day toxicity study was also conducted in male and female marmosets, where iclaprim mesylate was infused intravenously over a 20-minute interval."}, "S. pneumoniae": {"test_system": "S. pneumoniae", "assay": "MIC with/without bovine pulmonary surfactant, S. pneumoniae", "assay_type": "cell-based", "details": "Streptococcus pneumoniae", "experimental": "(§1) Clinical isolates were identified by the submitting laboratories and confirmed by JMI Laboratories using standard bacteriologic algorithms and methodologies, including Matrix-Assisted Laser Desorption Ionization-Time Of Flight Mass Spectrometry (MALDI-TOF MS). When necessary, MALDI-TOF MS was performed using the Bruker Daltonics MALDI Biotyper (Billerica, Mass., USA), following manufacturer's instructions. Isolates selected were bacterial species commonly associated with pneumonia. […] 2.2 Susceptibility testing\n(§2) Antibacterial susceptibility testing was measured by JMI Labs (North Liberty, Iowa, USA). […] These clinical isolates were collected from US (n=4), Mexico (n=2), and Italy (n=1). Susceptibility testing was performed by broth microdilution in accordance with the Clinical and Laboratory and Standards Institute (CLSI) guidelines M07-A10 (2015) and the standard operating procedures at JMI laboratories. Minimum inhibitory concentrations (MICs) were based on CLSI criteria (2015). There are no published breakpoints for iclaprim. E. coli, K. pneumoniae, M. catarrhalis, E. faecalis, and S. aureus were tested in cation-adjusted Mueller-Hinton broth (CA-MHB). S. pneumoniae were tested in CA-MHB supplemented with 2.5-5% lysed horse blood, and H. influenza were tested in Haemophilus test medium. Quality control and interpretation of results were performed in accordance with CLSI M100-S26 (2016) methods. QC ranges for iclaprim were those approved by CLSI and published in M100-S26 (2016). Iclaprim and comparator antibiotic MIC results were within the CLSI published ranges against E. coli ATCC 25922, E. faecalis ATCC 29212, E. faecalis ATCC 33186, H. influenzae ATCC 49247, K. pneumoniae ATCC 700603 (ESBL phenotype), S. aureus ATCC 29213, and S. pneumoniae ATCC 49619. Isolates were tested with MIC panels (ThermoFisher Scientific, Cleveland, Ohio, USA) of comparator antibiotics (daptomycin and levofloxacin).\n(§3) Because bovine pulmonary surfactant can introduce cloudiness to the MIC testing media, antimicrobial growth inhibition was also evaluated using the colorimetric metabolic indicator resazurin (Camlab Ltd., Cambridge, UK). […] S. pneumoniae panels were omitted from resazurin analysis because the color change was obscured by the lysed horse blood present in the test medium. Growth inhibition was then evaluated as a visible color change from blue (no growth) to pink (robust growth) and recorded as a MICRZ value.\n(§4) The MICs of iclaprim, levofloxacin, and daptomycin were determined against Gram-positive and Gram-negative isolates.\n(§5) A new vial of bovine pulmonary surfactant (BPS; Survanta®; Abbott Laboratories, Columbus, Ohio) was utilized for each independent experiment. Each vial was mixed thoroughly and a 100 μL aliquot was spread on an agar plate, which was incubated overnight to confirm sterility. […] The concentration of surfactant was expressed in terms of percent volume of Survanta® suspension, which consisted of phospholipid (25 mg/mL) and surfactant proteins (<1 mg/mL) in 0.9% sodium chloride solution (Goerke, 1998). MICs of daptomycin were determined in CAMHB with the Ca^2+ content adjusted to 50 mg/L."}, "S. aureus": {"test_system": "S. aureus", "assay": "MIC with/without bovine pulmonary surfactant, S. aureus", "assay_type": "cell-based, Staphylococcus aureus", "details": "for MICRZ, Resazurin: +BPS: 2.5% v/v BPS; for MICRZ, Resazurin: no BPS", "experimental": "as §1, §2, §3, §4, §5"}, "[2]": {"test_system": "common Gram-positive and Gram-negative respiratory bacteria", "assay": "Pulmonary surfactant interaction, overall effect on MIC and MICRZ", "assay_type": "cell-based", "details": "respiratory Gram-positive strains and clinical isolates; read-out: MIC and MICRZ in the presence of 2.5% BPS", "experimental": "Antibacterial susceptibility testing was measured by JMI Labs (North Liberty, Iowa, USA). […] These clinical isolates were collected from US (n=4), Mexico (n=2), and Italy (n=1). Susceptibility testing was performed by broth microdilution in accordance with the Clinical and Laboratory and Standards Institute (CLSI) guidelines M07-A10 (2015) and the standard operating procedures at JMI laboratories. Minimum inhibitory concentrations (MICs) were based on CLSI criteria (2015). There are no published breakpoints for iclaprim. E. coli, K. pneumoniae, M. catarrhalis, E. faecalis, and S. aureus were tested in cation-adjusted Mueller-Hinton broth (CA-MHB). […]\nBecause bovine pulmonary surfactant can introduce cloudiness to the MIC testing media, antimicrobial growth inhibition was also evaluated using the colorimetric metabolic indicator resazurin (Camlab Ltd., Cambridge, UK). […] Growth inhibition was then evaluated as a visible color change from blue (no growth) to pink (robust growth) and recorded as a MICRZ value.\nas §4\nA new vial of bovine pulmonary surfactant (BPS; Survanta®; Abbott Laboratories, Columbus, Ohio) was utilized for each independent experiment. […] MICs of daptomycin were determined in CAMHB with the Ca^2+ content adjusted to 50 mg/L. […]"}, "E. faecalis": {"test_system": "E. faecalis", "assay": "MIC with/without bovine pulmonary surfactant, E. faecalis", "assay_type": "cell-based, Enterococcus faecalis", "details": "for MICRZ, Resazurin: +BPS: 2.5% v/v BPS; for MICRZ, Resazurin / MIC: no BPS; for MIC: Enterococcus faecalis, read-out: MIC, CLSI", "experimental": "as §1, §2, §3, §4, §5"}, "M. catarrhalis": {"test_system": "M. catarrhalis", "assay": "MIC with/without bovine pulmonary surfactant, M. catarrhalis", "assay_type": "cell-based, Moraxella catarrhalis", "details": "for MICRZ, Resazurin: +BPS: 2.5% v/v BPS", "experimental": "as §1, §2, §3, §4, §5"}, "[3]": {"details": "S. aureus Clinical Isolate 825189"}}, "note": "Where a name gives a salt, the structure may show the parent alone. Read-outs that look alike come from different tables or passages of the source."}
{"smiles": "COc1cc(Cc2cnc(N)nc2N)c2c(c1OC)OC(C1CC1)C=C2", "note": "(racemic) [iclaprim mesylate, 5-[(2RS)-2-cyclopropyl-7,8-dimethoxy-2Hchromen-5-ylmethyl] pyrimidine-2,4-diamine methanesulfonate]", "values": [{"measurement": "dosages with histopathological changes at the injection sites", "setting": "[1]", "result": "≥ 10", "unit": "mg/kg/day"}]}
{"smiles": "CCCCCCCCCC(=O)N[C@@H](Cc1c[nH]c2ccccc12)C(=O)N[C@H](CC(N)=O)C(=O)N[C@@H](CC(=O)O)C(=O)N[C@@H]1C(=O)NCC(=O)N[C@@H](CCCN)C(=O)N[C@@H](CC(=O)O)C(=O)N[C@H](C)C(=O)N[C@@H](CC(=O)O)C(=O)NCC(=O)N[C@H](CO)C(=O)N[C@@H]([C@H](C)CC(=O)O)C(=O)N[C@@H](CC(=O)c2ccccc2N)C(=O)O[C@@H]1C", "note": "[Daptomycin]", "values": [{"measurement": "MIC", "setting": "S. pneumoniae; ATCC49619, S. pneumoniae ATCC 49619, 2.5% v/v BPS, read-out: MIC, CLSI: +BPS", "result": 16, "unit": "mg/L"}, {"measurement": "MIC", "setting": "S. pneumoniae; ATCC49619, S. pneumoniae ATCC 49619, no BPS, read-out: MIC, CLSI", "result": 0.25, "unit": "mg/L"}, {"measurement": "MIC", "setting": "S. pneumoniae; S. pneumoniae Clinical Isolate 818757, 2.5% v/v BPS, read-out: MIC, CLSI: +BPS", "result": 16, "unit": "mg/L"}, {"measurement": "MIC", "setting": "S. pneumoniae; S. pneumoniae Clinical Isolate 818757, no BPS, read-out: MIC, CLSI", "result": 0.25, "unit": "mg/L"}, {"measurement": "MIC", "setting": "S. pneumoniae; S. pneumoniae Clinical Isolate 825175, 2.5% v/v BPS, read-out: MIC, CLSI: +BPS", "result": 16, "unit": "mg/L"}, {"measurement": "MIC", "setting": "S. pneumoniae; S. pneumoniae Clinical Isolate 825175, no BPS, read-out: MIC, CLSI", "result": 0.25, "unit": "mg/L"}, {"measurement": "MICRZ, Resazurin: +BPS", "setting": "S. aureus; S. aureus ATCC 29213", "result": ">16", "unit": "µg/mL"}, {"measurement": "MICRZ, Resazurin", "setting": "S. aureus; S. aureus ATCC 29213", "result": 0.5, "unit": "µg/mL"}, {"measurement": "MICRZ, Resazurin: +BPS", "setting": "S. aureus; [3]", "result": ">16", "unit": "µg/mL"}, {"measurement": "MICRZ, Resazurin", "setting": "S. aureus; [3]", "result": 0.25, "unit": "µg/mL"}, {"measurement": "MIC", "setting": "[2]", "result": "> 16", "unit": "mg/L"}, {"measurement": "MICRZ, Resazurin: +BPS", "setting": "E. faecalis; E. faecalis ATCC 29212", "result": ">16", "unit": "µg/mL"}, {"measurement": "MICRZ, Resazurin", "setting": "E. faecalis; E. faecalis ATCC 29212", "result": 2, "unit": "µg/mL"}, {"measurement": "MICRZ, Resazurin: +BPS", "setting": "E. faecalis; E. faecalis ATCC 33186", "result": ">16", "unit": "µg/mL"}, {"measurement": "MICRZ, Resazurin", "setting": "E. faecalis; E. faecalis ATCC 33186", "result": 1, "unit": "µg/mL"}, {"measurement": "MIC", "setting": "E. faecalis; ATCC29212, E. faecalis ATCC 29212", "result": 2, "unit": "mg/L"}, {"measurement": "MIC", "setting": "E. faecalis; ATCC33186, E. faecalis ATCC 33186", "result": 1, "unit": "mg/L"}, {"measurement": "MICRZ, Resazurin: +BPS", "setting": "M. catarrhalis; M. catarrhalis Clinical Isolate 893806", "result": ">16", "unit": "µg/mL"}, {"measurement": "MICRZ, Resazurin", "setting": "M. catarrhalis; M. catarrhalis Clinical Isolate 893806, no BPS", "result": 8, "unit": "µg/mL"}, {"measurement": "MICRZ, Resazurin: +BPS", "setting": "M. catarrhalis; M. catarrhalis Clinical Isolate 893807", "result": ">16", "unit": "µg/mL"}, {"measurement": "MICRZ, Resazurin", "setting": "M. catarrhalis; M. catarrhalis Clinical Isolate 893807, no BPS", "result": 8, "unit": "µg/mL"}, {"measurement": "MIC", "setting": "M. catarrhalis; Moraxella catarrhalis, M. catarrhalis Clinical Isolate 893806, no BPS", "result": 8, "unit": "mg/L"}]}
